# Source: paper PMC11656837, “pH-Responsive Peptide Nanoparticles Deliver Macromolecules to Cells via Endosomal Membrane Nanoporation” (ACS Nano, 2024)
# Assays:
# [1] = Tryptophan fluorescence emission (water exposure of Trp19); type: physicochemical; conditions: buffer pH 7, no vesicles, 25 μM peptide in PBS
# From the text: Here, in Figure 8, we examine the solution behavior of C16-D-pHD108 using tryptophan fluorescence to measure the water exposure of the tryptophan residue at position 19, Figure 1, and using circular dichroism spectroscopy to measure the secondary structure.
# In Figure 8B, we show tryptophan emission spectra for the same three samples.
# [2] = Particle size by quasielastic / dynamic light scattering; type: physicochemical; conditions: QLS/DLS
# Method: To test this hypothesis, we next studied the C16-D-pHD108 particle size in solution using quasielastic light scattering (QLS). Samples of C16-D-pHD108 were dissolved in PBS with 138 mM NaCl, PBS with 69 mM NaCl, or PO4 buffer with no added salt. Most measurements were made at 25 μM peptides, but we tested concentrations between 25 and 200 μM peptides. Buffer without peptides gave a very low scattering intensity and no coherent particle peaks. […] Salt concentrations of 0, 69, and 138 mM had only small effects on the nanoparticle size. The median particle size for all samples was ∼120 nm. Particle size distributions for 25 μM C16-D-pHD108 are shown in Figure 8C at several salt concentrations for independently prepared samples. In Figure 8D, the light scattering intensity is shown to be a linear function of peptide concentration, with a Y-intercept at zero.
# Dynamic light scattering was performed by using a Malvern Zetasizer Nano ZS90 DLS instrument. After HPLC purification, 10 nmol aliquots of C16-D-pHD108 were dried in silanized Eppendorf tubes. Peptide readily dissolved in PBS buffer and other aqueous buffers and remained stable in solution. For DLS samples, C16-D-pHD108 was dissolved in PBS with 138 mM NaCl, in PBS with 69 mM NaCl (50% of normal), or in a PO4 buffer with no added salt. Most measurements were made at 25 μM peptide, but we tested concentrations between 25 and 200 μM peptide. […]
# HeLa cells = assay: Cytosolic delivery of green fluorescent protein (confocal microscopy); type: cell-based, human; conditions: 25 μM peptide, 10 μM external GFP, overnight, 37 °C
# Method: (§1) To validate the dextran delivery experiments, we also delivered two separate fluorescent proteins of ∼27 kDa molecular weight to the cytosol of two different cell lines using C16-D-pHD108 (see Figure 7). HeLa cells were incubated overnight with 10 μM green fluorescent protein (GFP), and Chinese Hamster Ovary (CHO) cells were incubated overnight with 3.5 μM yellow fluorescent protein (YFP), with and without 25 μM C16-D-pHD108. Just before imaging, external GFP and YFP were washed off and replaced with TAMRA-dextran (red) or fluorescent protein mTurquoise (blue), respectively, to mark the cell boundaries and extracellular spaces. […] These cells, especially those incubated with the higher 10 μM concentration of GFP, show endosomes with entrapped FP, just as we observed for dextran delivery. […] The apparent nuclear concentration of GFP in cells incubated with GFP but no peptide is indistinguishable from the background. […]
# (§2) For fluorescent protein or fluorescein-(Fab)2 fragment delivery, HeLa cells were incubated at 37 °C overnight in the presence of GFP with and without C16-D-pHD108 and CHO cells were incubated at 37 °C overnight with YFP in the presence and absence of C16-D-pHD108. […] Quantitation of delivered protein was performed by comparing measured intensities from microscopy images of standard protein solutions of known concentrations.
# [3] = system: Chinese Hamster Ovary (CHO) cells; assay: Cytosolic delivery of yellow fluorescent protein (confocal microscopy); type: cell-based; conditions: 25 μM peptide, 3.5 μM external YFP, 37 °C
# Method: as §1, with “background. With an external concentration of 3.5 μM, the YFP concentration delivered to the cell cytosol ranges from 1 to 3 μM, with a median of about 1.2 μM or 35% of the external concentration. The apparent cytosolic concentration of YFP in cells incubated with YFP but no peptide is indistinguishable from the background. We also performed YFP delivery experiments at a 4 h time point, Supplemental Figure S4.” for “background.”
# as §2, with “concentrations. […]” for “concentrations.”
# E. YFP intensities from the nuclei and cytosol of the cells in panels A,B and C,D. The dotted lines are the intensities of standard reference solution of media only and 3.5 µM YFP measured at the same time under identical conditions. […]
structure (smiles),measurement,setting,value
CCCCCCCCCCCCCCCC(=O)NCC(=O)N[C@@H](C(=O)NCC(=O)N[C@H](CCC(=O)O)C(=O)N[C@@H](C(=O)N[C@H](CC(C)C)C(=O)N[C@H](Cc1c[nH]cn1)C(=O)N[C@H](CCC(=O)O)C(=O)N[C@H](CC(C)C)C(=O)N[C@H](C)C(=O)N[C@H](CCC(=O)O)C(=O)NCC(=O)N[C@H](CC(C)C)C(=O)N1CCC[C@@H]1C(=O)N[C@H](CCC(=O)O)C(=O)N[C@H](CC(C)C)C(=O)N[C@H](CCC(N)=O)C(=O)N[C@H](CCC(=O)O)C(=O)N[C@H](Cc1c[nH]c2ccccc12)C(=O)N[C@@H](C(=O)N[C@H](Cc1c[nH]cn1)C(=O)N[C@H](C)C(=O)N[C@H](C)C(=O)N[C@H](CCC(N)=O)C(=O)N[C@H](CCC(N)=O)C(=O)N[C@H](CC(C)C)C(N)=O)[C@H](C)CC)C(C)C)[C@H](C)CC [C16-D-pHD108],tryptophan fluorescence emission maximum,[1],330 nm
same,stability of particle size distributions,"[2]; after sample preparation, pH 7",stable up to a week
same,median particle size / average diameter,"[2]; all samples, buffer pH 7",around 120 nm
same,"GFP concentration delivered to cell cytosol, median",HeLa cells,about 2 μM
same,"GFP delivered to cytosol, median as percent of the external concentration",HeLa cells,~20%
same,"YFP delivered to cytosol, median as percent of the external solution",[3]; 4 h,about 13%
same,"YFP concentration delivered to cell cytosol, median",[3]; overnight,about 1.2 μM
same,"YFP delivered to cytosol, median as percent of the external concentration",[3]; overnight,~35%
